As usually defined, the melting point is the temperature, or range, at which the solid turns liquid. Regarding `Cc1cccc(CN2Cc3cncn3C(c3cccc(Br)c3)C2=O)c1.Cl` (centres unmarked), the melting point fell in the range of 248 to 249 °C. The compound `CC1(c2cccc(Br)c2)C(=O)N(CC2CC2)Cc2cncn21.Cl` (centres unmarked) displayed a melting point of 234 to 236 °C.

On to `Cl.O=C1C(c2cccc(Br)c2)n2cncc2CN1Cc1cccc(F)c1` (centres unmarked), for which the melting point fell in the range of 240 to 243 °C.

For the compound `Cc1cccc(CN2Cc3cncn3C(c3ccc(C#N)cc3)C2=O)c1.Cl` (centres unmarked), the melting point fell in the range of 275 to 277 °C. In the case of `COc1ccc(CN2Cc3cncn3C(c3ccc(-c4ccsc4)cc3)C2=O)cc1` (centres unmarked) [Example 75, 7-(4-Methoxy-benzyl)-5-(4-thiophen3-yl-phenyl)-7,8-dihydro-imidazo[1,5-a]pyrazin-6-one], the melting point was in the range of 162 to 164 °C.

With `Cl.O=C1C(c2ccc(Br)cc2)n2cncc2CN1CCc1ccc(F)cc1` (centres unmarked), the melting point was 136 to 138 °C. Consider `N#Cc1ccc(C2C(=O)N(Cc3ccc(F)cc3)Cc3cncn32)cc1` (centres unmarked) [Example 14, 4-[6-Oxo-7-(4-fluoro-benzyl)-5,6,7,8-tetrahydro-imidazo[1,5-a]pyrazin-5-yl]-benzonitrile], for which the melting point was 132 to 135 °C.

As for `N#Cc1ccc(C2C(=O)N(Cc3ccc(Cl)c(Cl)c3)Cc3cncn32)cc1` (centres unmarked) [Example 16], the melting point lay in the range of 175 to 176 °C.

Turning to `Cl.O=C1C(c2cccc(Br)c2)n2cncc2CN1Cc1ccco1` (centres unmarked), the melting point lay within 215 to 218 °C. For the compound `CN1Cc2cncn2C(c2ccccc2)C1=O.Cl` (centres unmarked), the melting point is 252 to 254 °C. `C[C@@H](c1ccccc1)N1Cc2cncn2C(c2cccc(Br)c2)C1=O` (single isomer, unassigned; (-)) [Example 59] returned a melting point of 55 to 70 °C. Regarding `COc1ccc(CN2Cc3cncn3C(c3ccc(C#N)cc3)C2=O)cc1` (centres unmarked) [Example 9, 4-[7-(4-Methoxy-benzyl)-6-oxo-5,6,7,8-tetrahydro-imidazo[1,5-a]pyrazin-5-yl)-benzonitrile], the melting point lay in the range of 155 to 157 °C. Compound `CC(C)N1Cc2cncn2C(c2ccc(C#N)cc2)C1=O` (centres unmarked) [Example 6, 4-(7-Isopropyl-6-oxo-5,6,7,8-tetrahydro-imidazo[1,5-a]pyrazin-5-yl)-benzonitrile] came in with a melting point of 122 to 124 °C. In the case of `CN1Cc2cncn2C(c2cccc(Br)c2)C1=O.Cl` (centres unmarked) it was 265 °C (dec.); in that of `C[C@@H](c1ccccc1)N1Cc2cncn2C(c2ccc(Br)cc2)C1=O` (single isomer, unassigned; (-)) [Example 61], 167 to 168 °C. As for `N#Cc1ccc(C2CC(=O)N(Cc3ccccc3)Cc3cncn32)cc1` (centres unmarked) [Example 92, 4-(8-Benzyl-7-oxo-6,7,8,9-tetrahydro-5H-imidazo[1,5-a][1,4]diazepin-5-yl)-benzonitrile], the melting point was found to be 65 °C. On to `C[C@H](c1ccccc1)N1Cc2cncn2C(c2ccc(Br)cc2)C1=O` (single isomer, unassigned; (+)) [Example 60], for which the melting point is 147 to 148 °C.

Compound `Cl.O=C1C(c2ccc(Br)cc2)n2cncc2CN1Cc1ccc(Cl)cc1` (centres unmarked) returned a melting point of 158 to 159 °C. In the case of `Cl.N#Cc1cccc(C2C(=O)N(Cc3ccc(F)cc3)Cc3cncn32)c1` (centres unmarked) it was 260 to 263 °C; in that of `O=C(O)C(=O)O.O=C1C(c2cccc(Br)c2)n2cncc2CN1C1CCCCC1` (centres unmarked), 129 to 131 °C.

For the compound `O=C1C(c2cccc(Br)c2)n2cncc2CN1Cc1ccsc1` (centres unmarked) [Example 50, 5-(3-Bromo-phenyl)-7-thiophen-3-ylmethyl-7,8-dihydro-imidazo[1,5-a]pyrazin-6-one], the melting point lay within 43 to 45 °C.

For `COc1ccc(CN2Cc3cncn3C(c3cccc(Br)c3)C2=O)cc1.Cl` (centres unmarked), the melting point lay within 246 to 248 °C.

Consider `Cl.O=C1C(c2cccc(Br)c2)n2cncc2CN1Cc1cccs1` (centres unmarked), for which the melting point fell in the range of 233 to 235 °C. `CC1(c2ccc(C#N)cc2)C(=O)N(Cc2ccccc2)Cc2cncn21.Cl` (centres unmarked): the melting point was 230 to 232 °C.

The compound `C[C@@H](c1ccc(F)cc1)N1Cc2cncn2C(C)(c2ccc(C#N)cc2)C1=O` (some centres unmarked) [Example 86, 4(7-[(s)-1-(4-Fluoro-phenyl)-ethyl]-5-methyl-6-oxo-5,6,7,8-tetrahydro-imidazo[1,5-a]pyrazin-5-yl]-benzonitrile] had a melting point of 78 to 82 °C.

Consider `N#Cc1ccc(C2CC(=O)N(CC3CC3)Cc3cncn32)cc1` (centres unmarked) [Example 93, 4-(8-Cyclopropylmethyl-7-oxo-6,7,8,9-tetrahydro-5H-imidazo[1,5-a][1,4]diazepin-5-yl)-benzonitrile], for which the melting point is 178 to 180 °C. In the case of `O=C1N(Cc2ccc(F)cc2)Cc2cncn2C1(Cc1ccccc1)c1ccc(Br)cc1` (centres unmarked) [Example 87, 5-Benzyl-5-(4-bromo-phenyl)-7-(4-fluoro-benzyl)-7,8-dihydro-imidazo[1,5-a]pyrazin-6-one] it was 166 to 168 °C. In the case of `Cc1ccc(CN2Cc3cncn3CC2=O)cc1` [Example 64, 7-(4-Methyl-benzyl)-7,8-dihydro-imidazo[1,5-a]pyrazin-6-one] it was 105 to 108 °C. In the case of `Cl.O=C1C(c2ccc(-c3ccsc3)cc2)n2cncc2CN1CC1CC1` (centres unmarked) it was 217 to 219 °C. `CC1(c2ccc(Br)cc2)C(=O)N(Cc2ccc(F)cc2)Cc2cncn21.Cl` (centres unmarked) gave a melting point of 235 to 237 °C. With `CC1(c2ccc(C#N)cc2)C(=O)N(Cc2ccc(F)cc2)Cc2cncn21` (centres unmarked) [Example 85, 4-[7-(4-Fluoro-benzyl)-5-methyl-6-oxo-5,6,7,8-tetrahydro-imidazo[1,5-a]pyrazin-5-yl]-benzonitrile], the melting point fell in the range of 66 to 70 °C. Take `Cl.O=C1C(c2ccc(Br)cc2)n2cncc2CN1Cc1ccc(C(F)(F)F)cc1` (centres unmarked): the melting point lay in the range of 113 to 114 °C. Compound `CN1Cc2cncn2C(c2ccc(C#N)cc2)C1=O.Cl` (centres unmarked) returned a melting point of 222 to 224 °C.

Take `Cl.O=C1C(c2cccc(Br)c2)n2cncc2CN1Cc1ccc(C(F)(F)F)cc1` (centres unmarked): the melting point was in the range of 269 to 271 °C. `Cl.N#Cc1cccc(C2C(=O)N(CC3CC3)Cc3cncn32)c1` (centres unmarked) registered a melting point of 225 to 227 °C.

`COc1ccc(CN2Cc3cncn3C(c3ccc(Br)cc3)C2=O)cc1` (centres unmarked) [Example 21, 5-(4-Bromo-phenyl)-7-(4-methoxy-benzyl)-7,8-dihydro-imidazo[1,5-a]pyrazin-6-one] returned a melting point of 123 to 124 °C. With `COc1ccc(CN2Cc3cncn3C(c3cccc(C#N)c3)C2=O)cc1.Cl` (centres unmarked), the melting point lay in the range of 246 to 248 °C.

`Cl.N#Cc1cccc(C2C(=O)N(Cc3ccc(Cl)cc3)Cc3cncn32)c1` (centres unmarked) showed a melting point of 236 to 238 °C. In the case of `Cl.N#Cc1ccc(C2C(=O)N(CCc3ccc(F)cc3)Cc3cncn32)cc1` (centres unmarked) it was 160 to 162 °C; in that of `O=C1Cn2cncc2CN1Cc1ccc(F)cc1` [Example 65, 7-(4-Fluoro-benzyl)-7,8-dihydro-imidazo[1,5-a]pyrazin-6-one], 112 to 114 °C; in that of `Cl.N#Cc1cccc(C2C(=O)N(CCc3ccccc3)Cc3cncn32)c1` (centres unmarked), 203 to 205 °C. In the case of `Cl.O=C1C(c2ccc(Br)cc2)n2cncc2CN1Cc1ccc(F)cc1` (centres unmarked) it was 205 to 207 °C; in that of `CC1(c2ccc(Br)cc2)C(=O)N(CC2CC2)Cc2cncn21.Cl` (centres unmarked), 228 to 230 °C; in that of `O=C1C(c2cccc(Br)c2)n2cncc2CN1Cc1ccncc1` (centres unmarked) [Example 54, 5-(3-Bromo-phenyl)-7-pyridin-4-ylmethyl-7,8-dihydro-imidazo[1,5-a]pyrazin-6-one], 50 to 54 °C. `COc1ccc(CCN2Cc3cncn3C(c3cccc(Br)c3)C2=O)cc1.Cl` (centres unmarked) had a melting point of 202 to 204 °C. Compound `Cl.O=C1C(c2ccc(Br)cc2)n2cncc2CN1CC1CC1` (centres unmarked) showed a melting point of 223 to 225 °C. `CCCN1Cc2cncn2C(c2ccc(C#N)cc2)C1=O` (centres unmarked) [Example 5, 4-(6-Oxo-7-propyl-5,6,7,8-tetrahydro-imidazo[1,5-a]pyrazin-5-yl)-benzonitrile] gave a melting point of 97 to 98 °C. Regarding `N#Cc1cccc(C2C(=O)N(Cc3ccccc3)Cc3cncn32)c1` (centres unmarked) [Example 66], the melting point was in the range of 163 to 165 °C. In the case of `Cc1ccc(CN2Cc3cncn3C(c3ccc(C#N)cc3)C2=O)cc1` (centres unmarked) [Example 10, 4-[7-(4-Methyl-benzyl)-6-oxo-5,6,7,8-tetrahydro-imidazo[1,5-a]pyrazin-5-yl)-benzonitrile] it was 168 to 170 °C; in that of `Cl.O=C1C(c2cccc(Br)c2)n2cncc2CN1Cc1cccc(C(F)(F)F)c1` (centres unmarked), 246 to 248 °C.

Regarding `COc1ccc(N2Cc3cncn3C(c3ccc(Br)cc3)C2=O)cc1.Cl` (centres unmarked), the melting point was in the range of 149 to 150 °C.

With `Cl.N#Cc1ccc(C2C(=O)N(Cc3ccc(C(F)(F)F)cc3)Cc3cncn32)cc1` (centres unmarked), the melting point is 234 to 236 °C.

With `Cl.O=C1C(c2cccc(Br)c2)n2cncc2CN1Cc1ccc(Cl)cc1` (centres unmarked), the melting point lay within 268 to 270 °C. In the case of `Cl.O=C1C(c2cccc(Br)c2)n2cncc2CN1CCc1ccc(F)cc1` (centres unmarked) it was 179 to 180 °C; in that of `Cc1ccc(CN2Cc3cncn3C(c3cccc(Br)c3)C2=O)cc1.Cl` (centres unmarked), 265 to 267 °C; in that of `Cl.O=C1C(c2cccc(-c3ccccc3)c2)n2cncc2CN1Cc1ccccc1` (centres unmarked), 232 to 234 °C.

In turn, `Cl.O=C1C(c2cccc(Br)c2)n2cncc2CN1Cc1ccc(F)cc1` (centres unmarked) showed a melting point of 246 to 248 °C. In the case of `C[C@@H](c1ccccc1)N1Cc2cncn2C(c2ccc(C#N)cc2)C1=O` (single isomer, unassigned; (-)) [Example 62], the melting point was in the range of 157 to 158 °C. In the case of `Cc1ccc(CN2Cc3cncn3C(c3cccc(C#N)c3)C2=O)cc1.Cl` (centres unmarked) it was 260 to 263 °C. Regarding `Cc1ccc(CCN2Cc3cncn3C(c3cccc(Br)c3)C2=O)cc1.Cl` (centres unmarked), the melting point lay within 197 to 199 °C. Regarding `C[C@H](c1ccccc1)N1Cc2cncn2C(c2cccc(Br)c2)C1=O` (single isomer, unassigned; (+)) [Example 58], the melting point was 45 to 50 °C.

`N#Cc1ccc(C2(Cc3ccccc3)C(=O)N(CC3CC3)Cc3cncn32)cc1` (centres unmarked) [Example 89, 4-(5-Benzyl-7-cyclopropylmethyl-6-oxo-5,6,7,8-tetrahydro-imidazo[1,5-a]pyrazin-5-yl)-benzonitrile] yielded a melting point of 156 to 158 °C.

Values taken from patent publication US7732603B2, “Organic compounds as agents for the treatment of aldosterone mediated conditions” (Novartis AG, priority 2002, dated 2010).
